Experimental data from patent US20240207292A1, “BORONIC ACID COMPOUNDS, COMPOSITIONS AND METHODS” (Trustees of Tufts College, priority 2021, published 2024).

How the values were obtained:
[1] = Stability of 6555 with stabilizers over hours without AAPH (50 mM NH4OAc at RT or Ultrapura water at 40° C.); assay type: physicochemical
Excerpt: The effect of specified sulfur-containing compounds and other stabilizer compounds (including non-sulfur-containing stabilizer compounds) and mixtures of sulfur-containing compounds and non-sulfur-containing stabilizer compounds with the boronic acid compound 6555 (structure shown above) at various pH values.

[2] = Effect of NAM on stability of 6522/6555 with 50 mM AAPH at 60° C. for 60 mins as a function of pH; assay type: physicochemical; conditions: 5 mM NAM and 50 mM AAPH
Description: Effect of […] N-acetyl methionine (NAM) on the stability of the compounds 6522 (6522 compound structure shown above) at 60° C. in the presence of AAPH 2,2′-azobis-(2-amidopropane)hydrochloride as a function of pH.
• Concentration: of 6522 2 mg/mL • Reaction condition: With 5 mM NAM and 50 mM AAPH, at 60° C. for 60 mins

recombinant human FAP = recombinant human FAP (Homo sapiens (Human), UniProt Q12884); assay: In vitro enzyme IC50 assay, FAP (Example 16); assay type: biochemical; conditions: 10 min preincubation at 25° C.; Z-Gly-Pro-AMC
Description: Biological Materials: For the in vitro IC50 determination assays, recombinant human DPPIV, DPP9, FAP, and PREP were purchased from R&D Systems, and DPP8 was from Biomol International. Buffer systems used were A (25 mM Tris, pH 8.0), B (50 mM Tris, pH 7.5), C (50 mM Tris, 140 mM NaCl, pH 7.5), D (25 mM Tris, 250 mM NaCl, pH 7.5), and E (20 mM Tris, 20 mM KCl, pH 7.4). […] Substrate Specificity Assay. Peptide libraries (0.21 mM) were incubated for 24 h with 1 nM FAP in buffer E at 37° C. The reaction was quenched by the addition of 1.2 N HCl. The samples were analyzed by reverse-phase HPLC-MS on a Thermo Finnigan LCQ Duo, quantifying the peaks in the resulting base peak chromatograms. Relative cleavage values were determined by comparing the postquench abundance of intact peptides to those in the initial library.
In Vitro Enzyme IC50 Assays. Enzymatic activity of DPPIV, DPP8, DPP9, FAP, and PREP was measured at 25° C. on a Molecular Devices M2e multidetection microtiter plate reader, monitoring the fluorescence at an excitation wavelength of 380 nm and an emission wavelength of 460 nm. The substrate was either H-Gly-Pro-AMC for the DPPIV, DPP8, and DPP9 assays or Z-Gly-Pro-AMC for the FAP and PREP assays. […] The final enzyme concentrations were 0.1, 0.8, 0.4, 1.2, and 0.6 nM for DPPIV, DPP8, DPP9, FAP, and PREP, respectively. […] Those prepared in pH 2.0 solution were preincubated at 25° C. for 4 h prior to dilution. Immediately prior to the commencement of the experiment, the 100 mM stocks were further diluted to 10^-3 M in the appropriate assay buffer, from which 1:10 serial dilutions were prepared. All inhibitors were tested in triplicate.

[3] = target: recombinant human prolyl oligopeptidase (PREP) (Homo sapiens (Human), UniProt P48147); assay: In vitro assay prolyl oligopeptidase IC50 (Example 21); assay type: biochemical
Chain of recombinant human prolyl oligopeptidase (PREP) (P48147 whole entry): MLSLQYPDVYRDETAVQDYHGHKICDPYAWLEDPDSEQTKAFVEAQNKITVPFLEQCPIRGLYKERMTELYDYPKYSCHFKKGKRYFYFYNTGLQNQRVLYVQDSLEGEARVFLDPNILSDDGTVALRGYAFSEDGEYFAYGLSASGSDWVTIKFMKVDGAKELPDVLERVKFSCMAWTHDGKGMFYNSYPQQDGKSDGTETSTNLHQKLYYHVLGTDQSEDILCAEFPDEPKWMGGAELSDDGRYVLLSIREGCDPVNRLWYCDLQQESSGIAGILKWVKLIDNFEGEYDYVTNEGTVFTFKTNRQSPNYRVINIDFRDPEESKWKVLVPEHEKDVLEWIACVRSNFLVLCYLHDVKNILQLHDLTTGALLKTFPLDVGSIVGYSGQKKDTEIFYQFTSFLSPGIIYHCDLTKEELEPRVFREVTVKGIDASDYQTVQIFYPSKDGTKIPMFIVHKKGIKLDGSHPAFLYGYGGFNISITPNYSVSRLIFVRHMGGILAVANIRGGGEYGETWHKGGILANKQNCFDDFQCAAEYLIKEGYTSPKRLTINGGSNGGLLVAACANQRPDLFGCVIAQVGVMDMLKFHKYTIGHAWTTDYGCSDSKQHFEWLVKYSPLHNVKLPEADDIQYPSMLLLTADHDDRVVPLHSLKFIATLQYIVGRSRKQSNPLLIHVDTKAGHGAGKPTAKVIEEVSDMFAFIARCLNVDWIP

Chain of recombinant human FAP (Q12884 whole entry): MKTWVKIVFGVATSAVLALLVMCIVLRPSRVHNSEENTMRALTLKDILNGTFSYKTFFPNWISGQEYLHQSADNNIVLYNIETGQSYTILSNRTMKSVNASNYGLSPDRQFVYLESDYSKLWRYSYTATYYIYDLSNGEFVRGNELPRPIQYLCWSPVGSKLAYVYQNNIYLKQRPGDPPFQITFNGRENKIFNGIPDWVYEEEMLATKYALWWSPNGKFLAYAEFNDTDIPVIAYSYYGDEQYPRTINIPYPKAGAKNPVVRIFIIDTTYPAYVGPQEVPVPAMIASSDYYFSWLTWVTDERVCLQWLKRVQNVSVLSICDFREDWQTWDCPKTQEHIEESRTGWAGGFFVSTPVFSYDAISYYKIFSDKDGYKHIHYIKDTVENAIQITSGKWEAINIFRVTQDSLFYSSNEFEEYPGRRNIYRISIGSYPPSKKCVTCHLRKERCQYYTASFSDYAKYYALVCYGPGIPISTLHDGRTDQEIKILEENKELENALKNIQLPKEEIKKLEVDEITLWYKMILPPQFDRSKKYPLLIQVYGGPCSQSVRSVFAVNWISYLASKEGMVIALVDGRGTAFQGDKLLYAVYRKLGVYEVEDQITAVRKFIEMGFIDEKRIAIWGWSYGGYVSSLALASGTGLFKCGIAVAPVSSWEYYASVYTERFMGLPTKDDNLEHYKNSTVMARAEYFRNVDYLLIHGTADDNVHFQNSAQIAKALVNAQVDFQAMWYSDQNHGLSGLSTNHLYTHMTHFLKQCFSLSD

C[C@@H](NC(=O)c1ccc(CNC(=O)CN2CCN(CC(=O)O)CCN(CC(=O)O)CCN(CC(=O)O)CC2)cc1)C(=O)N1CCC[C@H]1B(O)O [compound 6555, DOTA-aminomethyl-Bz-D-Ala-boroPro]
6555 Remaining (%) ([1]; 50 mM NH4OAc, RT, 6 hr, (−) mode, no stabilizer, pH 5.4): 74.5%
6555 Remaining (%) ([1]; 50 mM NH4OAc, RT, 6 hr, (−) mode, sodium metabisulfite 5 mM, pH 5.1): 63.3%
6555 Remaining (%) ([1]; 50 mM NH4OAc, RT, 7 hr, (−) mode, sodium ascorbate 5 mM, sodium gentisate 2 mM, sodium metabisulfite 5 mM, disodium hydrosulfite 5 mM, pH 5.2): 77.4%
6555 Remaining (%) ([1]; 50 mM NH4OAc, RT, 7 hr, (−) mode, sodium metabisulfite 5 mM, disodium hydrosulfite 5 mM, pH 5.1): 66.9%
6555 Remaining (%) ([1]; 50 mM NH4OAc, RT, 8 hr, (−) mode, NAM 5 mM, sodium metabisulfite 5 mM, pH 4.9): 63.2%
6555 Remaining (%) ([1]; 50 mM NH4OAc, RT, 8 hr, (−) mode, sodium metabisulfite 25 mM, pH 4.2): 63.2%
6555 Remaining (%) ([1]; 50 mM NH4OAc, RT, 26 hr, (+) mode, no stabilizer, pH 5.4): 95.7%
6555 Remaining (%) ([1]; 50 mM NH4OAc, RT, 26 hr, (+) mode, sodium ascorbate 5 mM, sodium gentisate 2 mM, sodium metabisulfite 5 mM, disodium hydrosulfite 5 mM, pH 5.2): 96.7%
6555 Remaining (%) ([1]; 50 mM NH4OAc, RT, 31 hr, (−) mode, no stabilizer, pH 5.4): 82.2%
6555 Remaining (%) ([1]; 50 mM NH4OAc, RT, 31 hr, (−) mode, sodium ascorbate 5 mM, sodium gentisate 2 mM, sodium metabisulfite 5 mM, disodium hydrosulfite 5 mM, pH 5.2): 77.4%
6555 Remaining (%) ([1]; Ultrapura water, 40° C., 17 hr, (+) mode, no stabilizer, pH 5.2): 95.4%
6555 Remaining (%) ([1]; Ultrapura water, 40° C., 17 hr, (+) mode, sodium ascorbate 5 mM, sodium gentisate 2 mM, sodium metabisulfite 5 mM, disodium hydrosulfite 5 mM, pH 5): 96.1%
6555 Remaining (%) ([1]; Ultrapura water, 40° C., 18 hr, (+) mode, sodium ascorbate 5 mM, sodium gentisate 2 mM, NAM 5 mM, disodium hydrosulfite 5 mM, pH 5.0): 96.2%
6555 Remaining (%) ([1]; Ultrapura water, 40° C., 18 hr, (+) mode, sodium ascorbate 5 mM, sodium gentisate 2 mM, NAM 5 mM, sodium metabisulfite 5 mM, pH 5.1): 95.6%
6555 Remaining (%) ([1]; Ultrapura water, 40° C., 27 hr, (−) mode, sodium ascorbate 5 mM, sodium gentisate 2 mM, NAM 5 mM, disodium hydrosulfite 5 mM, pH 5.0): 85.3%
6555 Remaining (%) ([1]; Ultrapura water, 40° C., 27 hr, (−) mode, sodium ascorbate 5 mM, sodium gentisate 2 mM, NAM 5 mM, sodium metabisulfite 5 mM, pH 5.1): 92.8%
6555 Remaining (%) ([1]; Ultrapura water, 40° C., 28 hr, (−) mode, no stabilizer, pH 5.2): 83.7%
6555 Remaining (%) ([1]; Ultrapura water, 40° C., 28 hr, (−) mode, sodium ascorbate 5 mM, sodium gentisate 2 mM, sodium metabisulfite 5 mM, disodium hydrosulfite 5 mM, pH 5.0): 82.9%
6555 Remain (%) ([1]; mM: ascorbate 0, gentisate 0, NAM 0, metabisulfite 0, hydrosulfite 0, pH 5.2, 17 hrs, SID 90754): 95.4%
6555 Remain (%) ([1]; mM: ascorbate 0, gentisate 0, NAM 0, metabisulfite 0, hydrosulfite 0, pH 5.2, 28 hrs, SID 90768): 83.7%
6555 Remain (%) ([1]; mM: ascorbate 0, gentisate 0, NAM 0, metabisulfite 0, hydrosulfite 0, pH 5.4, 6 hrs, SID 90779): 74.5%
6555 Remain (%) ([1]; mM: ascorbate 0, gentisate 0, NAM 0, metabisulfite 0, hydrosulfite 0, pH 5.4, 26 hrs, SID 90844): 95.7%
6555 Remain (%) ([1]; mM: ascorbate 0, gentisate 0, NAM 0, metabisulfite 0, hydrosulfite 0, pH 5.4, 31 hrs, SID 90853): 82.2%
6555 Remain (%) ([1]; mM: ascorbate 0, gentisate 0, NAM 0, metabisulfite 5, hydrosulfite 0, pH 4.9, 8 hrs, SID 90787): 63.2%
6555 Remain (%) ([1]; mM: ascorbate 0, gentisate 0, NAM 0, metabisulfite 5, hydrosulfite 0, pH 5.1, 6 hrs, SID 90780): 63.3%
6555 Remain (%) ([1]; mM: ascorbate 0, gentisate 0, NAM 0, metabisulfite 5, hydrosulfite 5, pH 5.1, 7 hrs, SID 90783): 66.9%
6555 Remain (%) ([1]; mM: ascorbate 0, gentisate 0, NAM 0, metabisulfite 25, hydrosulfite 0, pH 4.2, 8 hrs, SID 90790): 63.2%
6555 Remain (%) ([1]; mM: ascorbate 5, gentisate 2, NAM 0, metabisulfite 5, hydrosulfite 5, pH 5, 17 hrs, SID 90756): 96.1%
6555 Remain (%) ([1]; mM: ascorbate 5, gentisate 2, NAM 0, metabisulfite 5, hydrosulfite 5, pH 5, 28 hrs, SID 90772): 82.9%
6555 Remain (%) ([1]; mM: ascorbate 5, gentisate 2, NAM 0, metabisulfite 5, hydrosulfite 5, pH 5.2, 7 hrs, SID 90786): 77.4%
6555 Remain (%) ([1]; mM: ascorbate 5, gentisate 2, NAM 0, metabisulfite 5, hydrosulfite 5, pH 5.2, 26 hrs, SID 90845): 96.7%
6555 Remain (%) ([1]; mM: ascorbate 5, gentisate 2, NAM 0, metabisulfite 5, hydrosulfite 5, pH 5.2, 31 hrs, SID 90854): 77.4%
6555 Remain (%) ([1]; mM: ascorbate 5, gentisate 2, NAM 5, metabisulfite 0, hydrosulfite 5, pH 5.0, 18 hrs, SID 90755): 96.2%
6555 Remain (%) ([1]; mM: ascorbate 5, gentisate 2, NAM 5, metabisulfite 0, hydrosulfite 5, pH 5.0, 27 hrs, SID 90771): 85.3%
6555 Remain (%) ([1]; mM: ascorbate 5, gentisate 2, NAM 5, metabisulfite 5, hydrosulfite 0, pH 5.1, 18 hrs, SID 90753): 95.6%
6555 Remain (%) ([1]; mM: ascorbate 5, gentisate 2, NAM 5, metabisulfite 5, hydrosulfite 0, pH 5.1, 27 hrs, SID 90769): 92.8%
6555 Remain (%) ([2]; pH 4, 2 mg/mL): 76.2%
6555 Remain (%) ([2]; pH 5, 2 mg/mL): 70.0%
IC50 (recombinant human FAP): 0.7 nM
IC50 [3]: 870 nM
